From ChEMBL document CHEMBL5214954, “Identification of PI3K/HDAC Dual-targeted inhibitors with subtype selectivity as potential therapeutic agents against solid Tumors: Building HDAC6 potency in a Quinazolinone-based PI3Kδ-selective template” (Bioorg Med Chem, 2022)

How the values were obtained:
[1] = biological target: T1, Phosphatidylinositol 4,5-bisphosphate 3-kinase catalytic subunit delta isoform (Homo sapiens, UniProt O00329); assay: Inhibition of PI3Kdelta (unknown origin) measured by ADP-Glo assay
T1 sequence (O00329 whole entry): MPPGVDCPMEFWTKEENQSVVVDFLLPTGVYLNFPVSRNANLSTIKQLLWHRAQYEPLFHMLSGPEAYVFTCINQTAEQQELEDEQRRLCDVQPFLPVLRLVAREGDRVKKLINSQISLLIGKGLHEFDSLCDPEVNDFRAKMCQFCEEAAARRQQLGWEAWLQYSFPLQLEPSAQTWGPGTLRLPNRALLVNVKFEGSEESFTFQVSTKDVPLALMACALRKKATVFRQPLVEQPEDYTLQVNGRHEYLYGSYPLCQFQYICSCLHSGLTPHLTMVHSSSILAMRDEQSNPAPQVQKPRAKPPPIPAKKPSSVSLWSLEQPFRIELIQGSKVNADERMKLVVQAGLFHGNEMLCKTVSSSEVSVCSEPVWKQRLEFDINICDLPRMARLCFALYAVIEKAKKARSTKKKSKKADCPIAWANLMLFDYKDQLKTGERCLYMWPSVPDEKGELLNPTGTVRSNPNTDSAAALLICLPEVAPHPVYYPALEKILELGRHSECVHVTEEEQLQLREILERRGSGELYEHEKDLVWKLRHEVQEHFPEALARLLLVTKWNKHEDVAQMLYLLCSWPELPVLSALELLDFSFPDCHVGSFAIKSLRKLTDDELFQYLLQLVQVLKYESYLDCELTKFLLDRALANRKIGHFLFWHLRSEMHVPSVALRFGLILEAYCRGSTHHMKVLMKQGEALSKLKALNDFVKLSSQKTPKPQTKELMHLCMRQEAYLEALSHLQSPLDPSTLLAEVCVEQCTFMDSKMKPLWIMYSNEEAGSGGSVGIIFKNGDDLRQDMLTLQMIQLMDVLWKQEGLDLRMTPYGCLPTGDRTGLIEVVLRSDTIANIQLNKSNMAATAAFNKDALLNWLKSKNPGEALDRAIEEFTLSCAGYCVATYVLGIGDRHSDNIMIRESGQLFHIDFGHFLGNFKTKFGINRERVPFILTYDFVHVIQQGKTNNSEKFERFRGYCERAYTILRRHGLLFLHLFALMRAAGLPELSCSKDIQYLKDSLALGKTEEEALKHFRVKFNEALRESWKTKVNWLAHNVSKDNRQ

[2] = Cytotoxicity against HUVEC cells incubated for 72 hrs by CCK-8 assay; settings: human
[3] = AUC (0 to infinity) in male Sprague-Dawley rat at 2 mg/kg, iv measured upto 24 hrs by LC-MS/MS analysis; type: ADME, organism-based; parameters: time < 24 hrs, dose 2 mg/kg, route iv; settings: in vivo

IC50 [1]: 0.0023 µM | AUC(0-inf) [3]: 632 ng·h/mL
Structure (SMILES): N#Cc1c(N)nc(N)nc1N1CC2(CC2)C[C@H]1c1nc2cccc(Cl)c2c(=O)n1Cc1ccc(C(=O)NO)s1
IC50 at 72 h [2]: 37 µM
